{
  "source": "patent US9205064B2",
  "about": "“Methods for the diagnosis of oncological disorders using epimetabolic shifters, multidimensional intracellular molecules, or environmental influencers” (Berg LLC, priority 2009, dated 2015)",
  "key": {"SCC cells": {"tested_on": "SCC cells", "assay": "Real-time PCR Heat Shock Protein Array", "format": "cell-based", "source_text": "The control cells were untreated cells.\nRNA was quantified by measuring Optical Density at 260 nm.\nHeat Shock Arrays were run for SCC cells and the data of regulated genes is summarized below in Table 13."}, "[1]": {"tested_on": "Isocitrate Dehydrogenase-1 (IDH-1)", "assay": "Western blot of IDH1 levels in normal and cancer cells", "format": "cell-based, human", "settings": "PACA2, 5g48-100", "method": "The whole cell pellets were resuspended one at a time in 1 mL of C7 buffer and transferred to labeled 15 mL tubes. The samples were then sonicated in the cold room on ice using 6 sonic pulses with the setting at #14. The samples were spun for a short time to 2500 g after sonication and the samples transferred to 2 ml tubes. The pH was verified of each sample (pH should be 9.0) using the foam remaining in the […] sample tubes.\nAlkylation and reduction of samples was performed for each sample by adding 10 ul of 1M acrylamide, 25 ul of tributylphoshene and incubation for 90 mins with intermittent mixing. After incubation, 10 ul of 1M DTT was added and the tubes were spun at 20,000 g at 20 deg C. for 10 minutes and transferred the supernatant to labeled Amicon Ultra centrifugal filter units with a 10 k cut off (Millipore catalog #UFC 801024). The samples were spun for 15 minutes at 2500 g in 2 intervals. The conductivity was measured for Chaps alone as well as the samples using a conductivity meter. If the conductivity of samples is high, then 1 ml of chaps was added for buffer exchange and spun again at 2500 g until the volume was down to 250 ul. […]\nThe samples were processed as per standard protocols as described above and the amount of protein in each of the samples was determined by Bradford assay. […]"}, "HDFa cells": {"tested_on": "HDFa cells", "assay": "SeaHorse XF analyzer OCR and ECAR", "format": "cell-based, human", "settings": "normoxic and hypoxic, 5.5 mM and 22 mM glucose", "source_text": "Environmental influencers (e.g., MIMs or Epi-shifters) may also be identified by changes in cellular energetics. One example of the measurement of cellular energetics are the real-time measures of the consumption of molecular oxygen and/or the change in pH of the media of a cell culture. For example, the ability of a potential epi-shifter to modulate the metabolic state of a cell may be analyzed using, for example, the XF24 Analyzer (Seahorse, Inc.). This technology allows for real time detection of oxygen and pH changes in a monolayer of cells in order to evaluate the bioenergetics of a cell microenvironment. The XF24 Analyzer measures and compares the rates of oxygen consumption (OCR), which is a measure of aerobic metabolism, and extracellular acidification (ECAR), which is a measure of glycolysis, both key indicators of cellular energetics.\n(SeaHorse Biosciences Inc, North Billerica, Mass.).\nIn this experiment, the OCR and extracellular acidification rate (ECAR) in normal cells lines were obtained in the presence and absence of CoQ10 to determine baseline values. It was observed that in its native nutrient environment, the basal OCR rates in normal cells lines are different, and are usually a function of the physiological roles of the cells in the body.\nFIGS. 29 and 30 describe the OCR in HDFa and HASMC cells grown in physiologically normal glucose (about 4.6 mM) and high glucose (hyperglycemic) conditions.\nTable 53, below, describes the ECAR values (mpH/min) in HDFa cells in the presence or absence of CoQ10 under normoxic and hypoxic conditions at 5.5 mM and 22 mM glucose."}},
  "data": [
    {"smiles": "COC1=C(OC)C(=O)C(C/C=C(\\C)CC/C=C(\\C)CC/C=C(\\C)CC/C=C(\\C)CC/C=C(\\C)CC/C=C(\\C)CC/C=C(\\C)CC/C=C(\\C)CC/C=C(\\C)CCC=C(C)C)=C(C)C1=O", "note": "[Q10, Coenzyme Q10]", "values": [
      {"measurement": "DNAJB5 mRNA Regulation", "setting": "SCC cells; 100 μM Q10, 6 hours", "result": "Down regulated"},
      {"measurement": "DNAJB13 mRNA Regulation", "setting": "SCC cells; 100 μM Q10, 6 hours", "result": "Down regulated"},
      {"measurement": "DNAJC4 mRNA Regulation", "setting": "SCC cells; 100 μM Q10, 6 hours", "result": "Down regulated"},
      {"measurement": "DNAJC5B mRNA Regulation", "setting": "SCC cells; 100 μM Q10, 6 hours", "result": "Down regulated"},
      {"measurement": "DNAJC12 mRNA Regulation", "setting": "SCC cells; 100 μM Q10, 6 hours", "result": "Down regulated"},
      {"measurement": "CCT6B mRNA Regulation", "setting": "SCC cells; 100 μM Q10, 24 hours", "result": "Down regulated"},
      {"measurement": "IDH1 Normalized Intensity (HASMC vs. PACA2)", "setting": "[1]", "result": 860},
      {"measurement": "influence on ECAR values", "setting": "HDFa cells", "result": "minimal influence"}
    ]}
  ]
}
